Among the data in ChEMBL document CHEMBL1136696, “Azalide 3,6-ketals: antibacterial activity and structure-activity relationships of aryl and hetero aryl substituted analogues” (Bioorg Med Chem Lett, 2003) are MIC values, retold here.

A word on the MIC: it is the least concentration at which growth counts as inhibited.

Holding throughout (type): functional
One assay concerns Staphylococcus aureus. As to the kind of experiment: In vitro antibacterial activity against Staphylococcus aureus 01A0758.
The next assay concerns Escherichia coli. As to the kind of experiment: In vitro antibacterial activity against Escherichia coli 51A0150.
A further assay deals with Pasteurella multocida. As to the kind of experiment: In vitro antibacterial activity against Pasteurella multocida 59A0067.

Each structure is given as a SMILES string. ≈ marks a conversion by molar mass, not a printed value. Bounds are passed on as bounds.

Take `CC[C@H]1OC(=O)[C@H](C)[C@H]2OC3(CCN(c4ccc([N+](=O)[O-])c(N)n4)CC3)O[C@](C)(C[C@@H](C)CN[C@H](C)[C@@H](O)[C@]1(C)O)[C@H](O[C@@H]1O[C@H](C)CC(N(C)C)[C@H]1O)[C@H]2C` (stereo not given in full): the MIC stood at 1.56 µg/mL (≈ 1.96 µM) in the assay on Staphylococcus aureus, 3.13 µg/mL (≈ 3.94 µM) against Escherichia coli and 0.1 µg/mL (≈ 0.126 µM) in the assay on Pasteurella multocida.
For `CC[C@H]1OC(=O)[C@H](C)[C@H]2OC3(CCN(c4ncc(C(=O)OCc5ccccc5)c(C(F)(F)F)n4)CC3)O[C@](C)(C[C@@H](C)CN[C@H](C)[C@@H](O)[C@]1(C)O)[C@H](O[C@@H]1O[C@H](C)CC(N(C)C)[C@H]1O)[C@H]2C` (stereo not given in full) the same measures were 0.78 µg/mL (≈ 0.831 µM), above 50 µg/mL and above 50 µg/mL.
For `CC[C@H]1OC(=O)[C@H](C)[C@H]2OC3(CCN(c4nc5ccccc5[nH]4)CC3)O[C@](C)(C[C@@H](C)CN(C)[C@H](C)[C@@H](O)[C@]1(C)O)[C@H](O[C@@H]1O[C@H](C)CC(N(C)C)[C@H]1O)[C@H]2C` (stereo not given in full) the same measures were 3.13 µg/mL (≈ 3.97 µM), 1.56 µg/mL (≈ 1.98 µM) and 0.1 µg/mL (≈ 0.127 µM).
For `CC[C@H]1OC(=O)[C@H](C)[C@H]2OC3(CCN(c4ccc([N+](=O)[O-])cc4)CC3)O[C@](C)(C[C@@H](C)CN(C)[C@H](C)[C@@H](O)[C@]1(C)O)[C@H](O[C@@H]1O[C@H](C)CC(N(C)C)[C@H]1O)[C@H]2C` (stereo not given in full) the same measures were 1.56 µg/mL (≈ 1.97 µM), 6.25 µg/mL (≈ 7.88 µM) and 0.39 µg/mL (≈ 0.492 µM).
In the case of `CC[C@H]1OC(=O)[C@H](C)[C@H]2OC3(CCN(c4cc(OC)nc(OC)n4)CC3)O[C@](C)(C[C@@H](C)CN[C@H](C)[C@@H](O)[C@]1(C)O)[C@H](O[C@@H]1O[C@H](C)CC(N(C)C)[C@H]1O)[C@H]2C` (stereo not given in full), the figures for the MIC in the assay on Staphylococcus aureus, in the assay on Escherichia coli and in the assay on Pasteurella multocida were 1.56 µg/mL (≈ 1.96 µM), 3.13 µg/mL (≈ 3.93 µM) and 0.2 µg/mL (≈ 0.251 µM), respectively.
For `CC[C@H]1OC(=O)[C@H](C)[C@H]2OC3(CCN(c4nc(C)ccc4C#N)CC3)O[C@](C)(C[C@@H](C)CN[C@H](C)[C@@H](O)[C@]1(C)O)[C@H](O[C@@H]1O[C@H](C)CC(N(C)C)[C@H]1O)[C@H]2C` (stereo not given in full) the same measures were 0.78 µg/mL (≈ 1.01 µM), 6.25 µg/mL (≈ 8.07 µM) and 0.78 µg/mL (≈ 1.01 µM).
The matching figures for `CC[C@H]1OC(=O)[C@H](C)[C@H]2OC3(CCN(c4ccc(C#N)cn4)CC3)O[C@](C)(C[C@@H](C)CN[C@H](C)[C@@H](O)[C@]1(C)O)[C@H](O[C@@H]1O[C@H](C)CC(N(C)C)[C@H]1O)[C@H]2C` (stereo not given in full): 1.56 µg/mL (≈ 2.05 µM), 6.25 µg/mL (≈ 8.22 µM) and 0.2 µg/mL (≈ 0.263 µM).
For `CC[C@H]1OC(=O)[C@H](C)[C@H]2OC3(CCN(c4ccc(C(=O)N(C)c5ccncc5)cc4F)CC3)O[C@](C)(C[C@@H](C)CN(C)[C@H](C)[C@@H](O)[C@]1(C)O)[C@H](O[C@@H]1O[C@H](C)CC(N(C)C)[C@H]1O)[C@H]2C` (stereo not given in full) the same measures were 3.13 µg/mL (≈ 3.48 µM), 1.56 µg/mL (≈ 1.73 µM) and 0.2 µg/mL (≈ 0.222 µM).
Consider `CC[C@H]1OC(=O)[C@H](C)[C@H]2OC3(CCN(c4ccc(C(=O)OCc5ccccc5)c(C(F)(F)F)c4)CC3)O[C@](C)(C[C@@H](C)CN[C@H](C)[C@@H](O)[C@]1(C)O)[C@H](O[C@@H]1O[C@H](C)CC(N(C)C)[C@H]1O)[C@H]2C` (stereo not given in full), for which the minimal inhibitory concentration (MIC) against Staphylococcus aureus is 0.78 µg/mL (≈ 0.833 µM); in the assay on Escherichia coli it was above 50 µg/mL; against Pasteurella multocida, 6.25 µg/mL (≈ 6.68 µM).
For `CC[C@H]1OC(=O)[C@H](C)[C@H]2OC3(CCN(c4ncc(C(=O)NCc5ccncc5)cn4)CC3)O[C@](C)(C[C@@H](C)CN(C)[C@H](C)[C@@H](O)[C@]1(C)O)[C@H](O[C@@H]1O[C@H](C)CC(N(C)C)[C@H]1O)[C@H]2C` (stereo not given in full) the same measures were 3.52 µg/mL (≈ 3.98 µM), above 50 µg/mL and above 50 µg/mL.
